From paper PMC11847324, “A communication hub for phosphoregulation of kinetochore-microtubule attachment” (Current biology : CB, 2024)
No end group written: not given here. *: point of attachment. BODIPYFLEthylmaleimide = Cc1cc(C)n2c1C=C1C=CC(CCC(=O)NCCN3C(=O)CC(*)C3=O)=[N+]1[B-]2(F)F

What was measured:
[1] = system: Ndc80c^dwarf; assay: Pulldown of GST-fusions of Mps1 segments by Ndc80c^dwarf immobilized on Ni-NTA agarose; type: binding, S. cerevisiae; details: 6-His Ndc80c^dwarf on Ni-NTA agarose, 30 min incubation, SDS-PAGE read-out; Figure 1B lane 12
Ndc80c^dwarf, sequence (P33895 1-150): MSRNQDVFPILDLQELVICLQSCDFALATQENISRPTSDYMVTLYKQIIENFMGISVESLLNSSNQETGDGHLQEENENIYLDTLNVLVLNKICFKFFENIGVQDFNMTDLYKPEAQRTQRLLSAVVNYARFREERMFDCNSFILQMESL
Ndc80c^dwarf, sequence (P40460 115-310, further chain): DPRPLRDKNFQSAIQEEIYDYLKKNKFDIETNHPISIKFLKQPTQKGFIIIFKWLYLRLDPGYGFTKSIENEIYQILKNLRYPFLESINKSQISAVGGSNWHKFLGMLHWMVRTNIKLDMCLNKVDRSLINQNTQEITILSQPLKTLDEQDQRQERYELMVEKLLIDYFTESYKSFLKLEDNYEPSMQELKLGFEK
Text: The long, N-terminal extension (residues 1–430) of yeast Mps1 has no immediately evident homology with sequences in metazoan Mps1 shown to interact with Ndc80c. […] We examined conservation among the yeast orthologs by iterative searches with the program Jackhmmer[50]. Using the N-terminal 430 residues of S. cerevisiae Mps1 as query, we identified five segments conserved among point-centromere yeasts (Figure 1A). We carried out a set of pulldown experiments, expressing them as GST-fusions and incubating them with the “dwarf” Ndc80c construct (Ndc80c^dwarf)[51] immobilized on Ni-NTA agarose (Figure 1B). In this format, we expected avidity from GST dimerization and multivalent display of Ndc80c to enhance the assay sensitivity. Ndc80c captured only the GST fusion of a peptide containing residues 151–171 (Figure 1B, lane 12), which include the most conserved region with a consensus sequence (151)RRxRRF(I/L/F)(3–4x)RxxxLGPAxR(170)(Figure 1C). Lysine appears occasionally in place of arginine, except for the invariant R at the end of the motif. […]
Figure 1. […] The bar graph above the N-terminal domain represents conservation determined by iterative searches with Jackhmmer[50] and shown as “information content”, defined in ref[68]. […]

[2] = system: Ndc80c^dwarf Nuf2 N128A; assay: Fluorescence polarization direct binding to Ndc80c^dwarf bearing Nuf2 N128A; design: species or system S. cerevisiae; details: Ndc80c^dwarf Nuf2 N128A relative to wild-type Ndc80c^dwarf; Figure 3D
Ndc80c^dwarf Nuf2 N128A, sequence (P40460 115-315 limits assumed): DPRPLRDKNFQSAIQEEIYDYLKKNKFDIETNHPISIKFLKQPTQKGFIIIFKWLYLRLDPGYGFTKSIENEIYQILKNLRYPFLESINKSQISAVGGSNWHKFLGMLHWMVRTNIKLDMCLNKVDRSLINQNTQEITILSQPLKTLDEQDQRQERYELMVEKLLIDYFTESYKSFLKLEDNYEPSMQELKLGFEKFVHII
Ndc80c^dwarf Nuf2 N128A, sequence (P33895 1-158 N128A limits assumed, further chain): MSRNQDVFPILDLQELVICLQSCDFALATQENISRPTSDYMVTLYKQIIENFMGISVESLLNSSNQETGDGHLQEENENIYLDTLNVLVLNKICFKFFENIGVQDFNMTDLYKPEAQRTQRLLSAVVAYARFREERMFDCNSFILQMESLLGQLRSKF
Experimental: (§1) Figure 3. Fluorescence polarization measurements of Ndc80c^dwarf binding peptides from the N-terminal extensions of Mps1 and Ipl1. (A) Polarization of fluorescence from 20 nM Bodipy-FL Mps1(137–171) (Mps1 residues 137–171 plus a C-terminal cysteine modified with Bodipy-FL -- see Methods) and Bodipy-FL Ipl1 (26–39;45–59) as a function of Ndc80c^dwarf concentration. (B) Competition binding experiment: unlabeled competitor peptides (see figure annotation) were added in twofold serial dilutions to Bodipy-FL Mps1(137–171) and Ndc80c^dwarf at final concentrations of 20 nM and 500 nM respectively. Loss of polarization indicates displacement of bound Bodipy-FL Mps1(137–171) by the competitor. (C) As in (B), with competitor Mps1(137–171) peptides containing mutations that reduce affinity for Ndc80c[40]. (D) Polarization of fluorescence from 20 nM Bodipy-FL Mps1(137–171) as a function of the concentration of Ndc80c^dwarf bearing mutations in Nuf2 that interfere with its Mps1 interaction in cells. […] For the Ipl1 peptide, the second copy of the motif, not used for the fluorescence polarization experiments, is shown in the bottom line.
(§2) We also determined the binding of the Mps1 peptide with two Ndc80c^dwarf constructs bearing mutations characterized in the other accompanying paper -- N128A and F8A P9A[48]. […]

[3] = system: Ndc80c^dwarf Nuf2 F8A P9A; assay: Fluorescence polarization direct binding to Ndc80c^dwarf bearing Nuf2 F8A P9A; design: species or system S. cerevisiae; details: Ndc80c^dwarf Nuf2 F8A P9A relative to wild-type Ndc80c^dwarf; Figure 3D
Ndc80c^dwarf Nuf2 F8A P9A, sequence (P40460 115-335 limits assumed): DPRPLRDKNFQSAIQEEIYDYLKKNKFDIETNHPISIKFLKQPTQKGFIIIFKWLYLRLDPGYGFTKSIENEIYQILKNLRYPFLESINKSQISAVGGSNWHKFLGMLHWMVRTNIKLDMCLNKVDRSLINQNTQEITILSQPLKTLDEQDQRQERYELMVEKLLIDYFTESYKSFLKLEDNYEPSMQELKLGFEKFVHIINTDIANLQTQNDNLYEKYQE
Ndc80c^dwarf Nuf2 F8A P9A, sequence (P33895 1-173 F8A/P9A limits assumed, further chain): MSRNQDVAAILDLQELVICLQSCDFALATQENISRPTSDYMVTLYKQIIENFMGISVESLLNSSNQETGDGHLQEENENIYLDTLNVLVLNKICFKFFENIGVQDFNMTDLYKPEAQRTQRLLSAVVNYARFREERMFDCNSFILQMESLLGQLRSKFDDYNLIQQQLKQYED
Experimental: as §1, §2

With “GST fusion of a peptide containing residues 151–171: GST-fusion of Mps1 residues 151–171 expressed from pGEX-6P1 (GSGGSGGSGGSGGSERRSKRFLISNRTTKLGPAKR; also: GST fusion, end not given here)” the “capture of GST fusion by immobilized Ndc80c^dwarf” value [1] was “captured”.
“Bodipy-FL Mps1(137–171): Mps1 residues 137–171 plus a C-terminal cysteine modified with Bodipy-FL (RQNMKEDITAKYAERRSKRFLISNRTTKLGPAKRAC(BODIPYFLEthylmaleimide))” was tested, and the “affinity weaker than for the wild-type protein” value [2] was “about 2 logs” and the “affinity weaker than for the wild-type protein” value [3] was “about 2 logs”.
